According to publication PMC10192568, “Comparison of pharmacokinetic profiles of seven major bioactive components in normal and non-alcoholic fatty liver disease (NAFLD) rats after oral administration of Ling-Gui-Zhu-Gan decoction by UPLC-MS/MS” (Frontiers in Pharmacology, 2023):
Where two headings read alike, the source gives them in different places.

Legend:
[1] = Stability of the seven components in rat plasma QC samples; format: physicochemical; conditions: n = 6; for Stability during 24 h at 4°C, RE: auto sampler
Protocol: Stability refers to the ability of the components to retain their chemical properties in the matrix. To analyze the stability of all components in the plasma, six replicates of QC samples at three concentrations were hereby prepared under each condition. The stability of the QC samples at three concentrations was analyzed under different storage conditions: −80°C for 30 days, after three freeze–thaw cycles, and 24 h in an auto sampler at 4°C.

[2] = Pharmacokinetic study of LGZGD components in plasma of normal and NAFLD rats after oral administration (UPLC-MS/MS); format: in vivo, Male Sprague–Dawley rats; conditions: for AUC0-∞ value decreased / C max value decreased: NAFLD rats compared with normal rats; for AUC(0-inf) / AUC(0-t) / Cmax / Tmax / half-life / MRT last: male, Sprague-Dawley, rat, po, 23 g/kg; for MRT last: read-out: MRT0-t
Protocol: Male Sprague–Dawley rats, weighing 200–220 g, SPF grade, were purchased from Shanghai Sippr-BK laboratory animal Co. Ltd. (Shanghai, China) and raised in the Laboratory Animal Center of Shanghai University of Traditional Chinese Medicine. The rats were kept in an environmentally controlled condition: on a 12:12 h light–dark cycle (lights on at 7:00 a.m.) with regulated temperature and humidity, at a temperature of 22°C–24°C and a relative humidity of 60–65%. In the experiment, the rats in the normal group were fed a certified standard rat diet and tap water, while those in the model group were fed a high-fat diet for 8 weeks to construct the NAFLD model (high-fat diet: 2% cholesterol, 10% lard, 0.1% sodium cholate, 10% yolk powder, and 77.9% normal diet). The animal experiment program was approved by the Animal Committee of Shanghai University of Traditional Chinese Medicine (License No.: PZSHUTCM201016001).
An Agilent 1290 UPLC system was combined with an Agilent 6460 series MS/MS system (Agilent Technologies, Santa Clara, CA, United States) to quantify the analytes in the ESI-positive ionization mode. The mass spectrum conditions were as follows: a capillary voltage of 4,000 V; a gas flow rate of 10 L/min; a nebulizer of 30 psi; a gas temperature of 350°C; and a Delta EMV(+) of 200 V. Five microliters of the samples was injected into an Agilent SB-C18 column (2.1 mm × 50 mm, 1.8 μm particles). The analytes were separated using the gradient elution method, and the mobile phase was composed of water (0.05% V/V formic acid) (A) and acetonitrile (B) at a flow rate of 0.4 mL/min (0–1 min, 10–10% B; 1–5 min, 10–90% B; 5–7 min, 90–90% B; and 7–7.1 min, B 90–10%; rebalance for 2 min).
A plasma sample of 50 µL was placed in a 1.5 mL centrifuge tube with 10 µL of schisandrin (IS) solution (50 ng/mL) and mixed for 5 min. The samples were successively extracted with 500 µL of ethyl acetate and treated with 250 µL of methanol, which were then mixed for 5 min and centrifuged at 4°C for 10 min (at 18,000 rpm). All the supernatant was absorbed into another 1.5 mL centrifuge tube, dried under a gentle stream of nitrogen at 37°C, and then added with 50 µL of 50% methanol for reconstruction. After being centrifuged at 4°C for 10 min (at 18,000 rpm), 5 µL of the supernatant was extracted and injected into a chromatographic column for analysis, and the chromatograms were recorded.
The rats were randomly divided into the normal group and the model group. According to the preliminary experiment, the dose was adjusted to about eight times the normal dose ([Gu, 2020]; [Li et al., 2023]). […] The animal research program was approved by the Animal Committee of Shanghai University of Traditional Chinese Medicine. At 0, 0.083, 0.25, 0.5, 0.75, 1, 2, 4, 6, 8, 10, 12, 24, and 48 h after dosing, 150 µL blood samples were collected from the rats' orbital venous plexus into centrifuge tubes containing 10 IU of sodium heparin. After being centrifuged at 5,000 rpm (4°C) for 10 min, the plasma was transferred to 1.5 mL polypropylene tubes and stored at −80°C until the plasma samples were analyzed.
Important pharmacokinetic parameters, which included the maximum plasma concentration (C max), time to maximum concentration (T max), half-life (t 1/2), area under the curve (AUC0-t), and total area under the curve (AUC0-∞), were hereby calculated using the DAS 3.2.8 software. Meanwhile, the pharmacokinetic data of the normal and model rats were compared using the SPSS software (version 21.0). Besides, Spearman rank bivariate correlation coefficient was used to determine the correlation between AUC values and UGT1A1 and nine other transporters. All the calculated data were expressed as mean ± SD. When p < 0.05, the difference was considered significant and statistically significant; and when p < 0.01 or <0.001, the difference was considered very significant.

[3] = plasma, Model (NAFLD) group, male SD rats, oral LGZGD extract 23 g/kg, plasma, mean ± SD, n = 6
[4] = plasma, Normal group, male SD rats, oral LGZGD extract 23 g/kg, plasma, mean ± SD, n = 6
[5] = NAFLD rats compared with the normal group, oral LGZGD

| SMILES | Stability during 24 h at 4°C, RE ([1]; high QC level) [%] | Stability during 24 h at 4°C, RE ([1]; low QC level) [%] | Stability during 24 h at 4°C, RE ([1]; medium QC level) [%] | Three freeze–thaw cycles, RE ([1]; high QC level) [%] | −80°C for 30 days, RE ([1]; high QC level) [%] | Three freeze–thaw cycles, RE ([1]; low QC level) [%] | −80°C for 30 days, RE ([1]; low QC level) [%] | Three freeze–thaw cycles, RE ([1]; medium QC level) [%] | −80°C for 30 days, RE ([1]; medium QC level) [%] | AUC0-∞ value decreased ([2]; oral LGZGD) [%] | C max value decreased ([2]; oral LGZGD) [%] | AUC(0-inf) [2, 3] [ng·h/mL] | AUC(0-t) [2, 3] [ng·h/mL] | Cmax [2, 3] [ng/mL] | Tmax [2, 3] [h] | half-life [2, 3] [h] | MRT last [2, 3] [h] | AUC(0-inf) [2, 4] [ng·h/mL] | AUC(0-t) [2, 4] [ng·h/mL] | Cmax [2, 4] [ng/mL] | also measured |
| --- | --- | --- | --- | --- | --- | --- | --- | --- | --- | --- | --- | --- | --- | --- | --- | --- | --- | --- | --- | --- | --- |
| O=C(O)/C=C/c1ccccc1 [Cinnamic acid, cinnamic acid] | −3.7 | 8.4 | 13.9 | −11.1 | −2.6 | −0.4 | −8.0 | 0.7 | 3.6 | 58.1 | 38.3 | 4410 ± 1420 | 4330 ± 1330 | 1190 ± 352 | 0.6 ± 0.1 | 6.6 ± 3.5 | 6.2 ± 1.8 | 10500 ± 1900 | 10100 ± 1770 | 1930 ± 484 | Tmax [2, 4]: 0.6 ± 0.1 h; half-life [2, 4]: 12.8 ± 3.6 h; MRT last [2, 4]: 8.2 ± 1.3 h |
| C=C(CC[C@@H](C(=O)O)[C@H]1[C@H](O)C[C@@]2(C)C3=CC[C@H]4C(C)(C)[C@@H](O)CC[C@]4(C)C3=CC[C@]12C)C(C)C [Dehydrotumulosic acid, dehydrotumulosic acid] | −2.3 | 3.8 | 1.6 | 5.5 | 3.0 | −12.8 | 3.2 | −4.3 | 10.2 | 75.1 | 62.4 | 43.5 ± 12 | 43.4 ± 12 | 3.8 ± 0.6 | 1.8 ± 1.6 | 5 ± 1.8 | 10.4 ± 2.2 | 175 ± 37.2 | 142 ± 15.8 | 10.1 ± 3 | MRT decreased [2, 5]: 27.8%; Tmax [2, 4]: 4 ± 1.8 h; half-life [2, 4]: 19 ± 12.2 h; MRT last [2, 4]: 14.4 ± 2.7 h |
| C=C1CCC[C@]2(C)C[C@]3(O)OC(=O)C(C)=C3C[C@@H]12 [Atractylenolide III, atractylenolide III] | −4.0 | 6.4 | 5.2 | −3.8 | 14.1 | 13.3 | −4.4 | −9.5 | −3.5 | 70.8 | 35.2 | 166 ± 45.1 | 117 ± 16.1 | 7.9 ± 1.3 | 0.6 ± 0.1 | 18.3 ± 1.3 | 19.3 ± 2.9 | 568 ± 235 | 352 ± 21.5 | 12.2 ± 3.4 | MRT0-t prolonged [2, 5]: 31.3%; Tmax [2, 4]: 0.7 ± 0.1 h; half-life [2, 4]: 10.2 ± 4.4 h; MRT last [2, 4]: 14.7 ± 1.5 h |
| O=C1C[C@@H](c2ccc(O[C@@H]3O[C@H](CO)[C@@H](O)[C@H](O)[C@H]3O)cc2)Oc2cc(O)ccc21 [Liquiritin, liquiritin] | −3.0 | 1.4 | 5.4 | 4.1 | −1.2 | 10.5 | −4.1 | −1.8 | 3.1 | 53.7 | 63.8 | 53400 ± 22100 | 52800 ± 22300 | 3740 ± 991 | 6.8 ± 4.1 | 6 ± 3.4 | 10.1 ± 1.3 | 115000 ± 32900 | 115000 ± 32900 | 10300 ± 1850 | MRT0-t prolonged [2, 5]: 31.2%; t 1/2 ([2]; Normal group, male SD rats, oral LGZGD extract 23 g/kg, plasma, mean ± SD, n = 6): 5.2 ± 2.5 h; Tmax [2, 4]: 4.8 ± 1.1 h; MRT last [2, 4]: 7.7 ± 1.6 h |
